Assay results published in patent US5556979A, “7-isoindolinyl-naphthyridone derivatives, compositions and anti-bacterial use thereof” (Bayer Aktiengesellschaft, priority 1992, dated 1996).
In brackets after ≈: the same amount, converted by molar mass.

What was measured:
Assay in all cases: Minimum inhibitory concentration (MIC), serial dilution on Iso-Sensitest agar
Type in all cases: cell-based
[1] = test system: Pseudomonas aeruginosa Walter; conditions: 37° C., about 20 hours
Description: (§1) The minimum inhibitory concentrations (MIC) were determined by means of serial dilution methods on Iso-Sensitest agar (Oxoid). For each substance to be tested, a series of agar plates was prepared which contained concentrations of the active compound which decreased by a double dilution on each occasion. The agar plates were inoculated with a Multipoint inoculator (Denley). For the inoculation, overnight cultures of the pathogens were used which had previously been diluted so that each inoculation spot contained about 10^4 colony-forming particles. The inoculated agar plates were incubated at 37° C. and the organism growth was recorded after about 20 hours. The MIC value (μg/ml) indicates the lowest concentration of active compound at which no growth could be detected with the naked eye.

Klebsiella sp. 8085 = conditions: 37° C., about 20 hours
Description: as §1

Morganella morg. 932 = conditions: 37° C., about 20 hours
Description: as §1

E. coli Neumann = conditions: Escherichia coli, 37° C., about 20 hours
Description: as §1

[2] = test system: Staphylococcus aureus 1756; conditions: 37° C., about 20 hours
Description: as §1

Providencia sp. 12012 = conditions: 37° C., about 20 hours
Description: as §1

[3] = test system: Entercoccus faecalis 27 101; conditions: 37° C., about 20 hours
Description: as §1

[4] = test system: Enterobacter cloacae 2427; conditions: 37° C., about 20 hours
Description: as §1

Micrococcus luteus 9341 = conditions: 37° C., about 20 hours
Description: as §1

[5] = test system: Staphylococcus aureus ICB 25701; conditions: ICB25701, 37° C., about 20 hours
Description: as §1

`Nc1cccc2c1CN(c1c(F)cc3c(=O)c(C(=O)O)cn(C4CC4)c3c1F)C2` [*, 7-(4-amino-1,3-dihydro-isoindol-2-yl)-1-cyclopropyl-6,8-difluoro-1,4-dihydro-4-oxo-3-quinolinecarboxylic acid, reference compound] gave an MIC [1] greater than 128 µg/mL, an MIC (Klebsiella sp. 8085) of 4 µg/mL (≈ 10.1 µM) and an MIC (Morganella morg. 932) of 1 µg/mL (≈ 2.52 µM). For the same molecule, the MIC (E. coli Neumann) was 0.5 µg/mL (≈ 1.26 µM), the MIC [2] was 0.03 µg/mL (≈ 0.0755 µM) and the MIC (Providencia sp. 12012) was 1 µg/mL (≈ 2.52 µM). It also gave an MIC [3] of 0.5 µg/mL (≈ 1.26 µM).
With `N[C@@H]1CC=C[C@@H]2CN(c3c(F)cc4c(=O)c(C(=O)O)cn(C5CC5)c4c3F)C[C@@H]12` (relative stereo) [Example 4, (1'SR,2'RS,6'SR)-7-(2'-Amino-8'-azabicyclo[4.3.0]non-4'-en-8'-yl)-1-cyclopropyl-6,8-difluoro-1,4-hydro-4-oxo-3-quinolinecarboxylic acid] the MIC [1] was 0.25 µg/mL (≈ 0.623 µM), the MIC (Klebsiella sp. 8085) was 0.015 µg/mL (≈ 0.0374 µM) and the MIC [4] was 0.015 µg/mL (≈ 0.0374 µM). The MIC (Morganella morg. 932) was 0.015 µg/mL (≈ 0.0374 µM), the MIC (E. coli Neumann) was 0.0078 µg/mL (≈ 0.0194 µM) and the MIC (Micrococcus luteus 9341) was 0.015 µg/mL (≈ 0.0374 µM). It also gave an MIC [2] of 0.0039 µg/mL (≈ 0.00972 µM), an MIC [5] of 0.03 µg/mL (≈ 0.0747 µM) and an MIC (Providencia sp. 12012) of 0.015 µg/mL (≈ 0.0374 µM). The MIC [3] was 0.15 µg/mL (≈ 0.374 µM).
`CN[C@@H]1CC=C[C@@H]2CN(c3c(F)cc4c(=O)c(C(=O)O)cn(C5CC5)c4c3F)C[C@H]21` (relative stereo) [Example 22, (1'SR,2'RS,6'SR)-1-Cyclopropyl-6,8-difluoro-1,4-dihydro-7-(2'-methylamino-8'-azabicyclo[4.3-0]non-4'-en-8'-yl)-4-oxo-3-quinolinecarboxylic acid] showed an MIC [1] of 2 µg/mL (≈ 4.81 µM), an MIC (Klebsiella sp. 8085) of 0.06 µg/mL (≈ 0.144 µM) and an MIC [4] of 0.125 µg/mL (≈ 0.301 µM). The MIC (Morganella morg. 932) was 0.125 µg/mL (≈ 0.301 µM), the MIC (E. coli Neumann) was 0.03 µg/mL (≈ 0.0722 µM) and the MIC (Micrococcus luteus 9341) was 0.125 µg/mL (≈ 0.301 µM). For the same molecule, the MIC [2] was no more than 0.015 µg/mL, the MIC [5] was 0.125 µg/mL (≈ 0.301 µM) and the MIC (Providencia sp. 12012) was 0.125 µg/mL (≈ 0.301 µM). The MIC [3] was 0.03 µg/mL (≈ 0.0722 µM).
For `N[C@@H]1CC=C[C@@H]2CN(c3c(F)cc4c(=O)c(C(=O)O)cn(C5CC5)c4c3Cl)C[C@@H]12` (relative stereo) [Example 12, (1'SR,2'RS,6'SR)-7-(2'-Amino-8'-azabicyclo[4.3.0]non-4'-en-8'-yl)-8-chloro-1-cyclopropyl-6-fluoro-1,4-dihydro-4-oxo-3-quinolinecarboxylic acid], the MIC [1] was 0.25 µg/mL (≈ 0.598 µM), the MIC (Klebsiella sp. 8085) was 0.015 µg/mL (≈ 0.0359 µM) and the MIC [4] was 0.015 µg/mL (≈ 0.0359 µM). The MIC (Morganella morg. 932) was 0.015 µg/mL (≈ 0.0359 µM), the MIC (E. coli Neumann) was 0.0039 µg/mL (≈ 0.00933 µM) and the MIC (Micrococcus luteus 9341) was 0.015 µg/mL (≈ 0.0359 µM). It also gave an MIC [2] of no more than 0.0019 µg/mL, an MIC [5] of 0.015 µg/mL (≈ 0.0359 µM) and an MIC (Providencia sp. 12012) of 0.015 µg/mL (≈ 0.0359 µM). For the same molecule, the MIC [3] was 0.0078 µg/mL (≈ 0.0187 µM).
`Nc1c(F)c(N2C[C@H]3[C@H](N)CC=C[C@@H]3C2)c(F)c2c1c(=O)c(C(=O)O)cn2C1CC1` (relative stereo) [Example 19, (1 'SR,2 'RS,6 'SR)-5-Amino-7-(2 '-amino-8 '-azabicyclo[4.3.0]non-4'-en-8'-yl)-1-cyclopropyl-6,8-difluoro-1,4-dihydro-4-oxo-3-quinolinecarboxylic acid] showed an MIC [1] of 1 µg/mL (≈ 2.4 µM), an MIC (Klebsiella sp. 8085) of 0.03 µg/mL (≈ 0.072 µM) and an MIC [4] of 0.03 µg/mL (≈ 0.072 µM). For the same molecule, the MIC (Morganella morg. 932) was 0.03 µg/mL (≈ 0.072 µM), the MIC (E. coli Neumann) was no more than 0.015 µg/mL and the MIC (Micrococcus luteus 9341) was 0.06 µg/mL (≈ 0.144 µM). For the same molecule, the MIC [2] was no more than 0.015 µg/mL, the MIC [5] was 0.03 µg/mL (≈ 0.072 µM) and the MIC (Providencia sp. 12012) was no more than 0.015 µg/mL. For the same molecule, the MIC [3] was no more than 0.015 µg/mL.
Work on `CC1COc2c(N3C[C@H]4[C@H](N)CC=C[C@@H]4C3)c(F)cc3c(=O)c(C(=O)O)cn1c23` (stereo partly drawn) [Example 14, (1'SR,2'RS,6'SR)-10-(2'-Amino-8'-azabicyclo [4.3.0]non-4'-en-8'-yl)-9-fluoro-2,3-dihydro-3-methyl-7-oxo-7H-pyrido[1,2,3-de][1,4]benzoxazine-6-carboxylic acid] yielded an MIC [1] of 1 µg/mL (≈ 2.5 µM), an MIC (Klebsiella sp. 8085) of 0.125 µg/mL (≈ 0.313 µM) and an MIC [4] of 0.125 µg/mL (≈ 0.313 µM). For the same molecule, the MIC (Morganella morg. 932) was 0.125 µg/mL (≈ 0.313 µM), the MIC (E. coli Neumann) was 0.03 µg/mL (≈ 0.0751 µM) and the MIC (Micrococcus luteus 9341) was 0.125 µg/mL (≈ 0.313 µM). The MIC [2] was 0.0078 µg/mL (≈ 0.0195 µM), the MIC [5] was 0.25 µg/mL (≈ 0.626 µM) and the MIC (Providencia sp. 12012) was 0.125 µg/mL (≈ 0.313 µM). It also gave an MIC [3] of 0.03 µg/mL (≈ 0.0751 µM).
`N[C@@H]1CC=C[C@@H]2CN(c3cc4c(cc3F)c(=O)c(C(=O)O)cn4C3CC3)C[C@@H]12` (relative stereo) [Example 6, (1'SR,2'RS,6'SR)-7-(2'-amino-8'-azahicyclo[4.3.0]non-4'-en-8'-yl)-1-cyclopropyl-6-fluoro-1,4-dihydro-4-oxo-3-quinolinecarboxylic acid] gave an MIC [1] of 0.5 µg/mL (≈ 1.3 µM), an MIC (Klebsiella sp. 8085) of 0.03 µg/mL (≈ 0.0782 µM) and an MIC [4] of 0.06 µg/mL (≈ 0.156 µM). The MIC (E. coli Neumann) was no more than 0.015 µg/mL, the MIC (Micrococcus luteus 9341) was 0.06 µg/mL (≈ 0.156 µM) and the MIC [2] was no more than 0.015 µg/mL. For the same molecule, the MIC [5] was 0.125 µg/mL (≈ 0.326 µM), the MIC (Providencia sp. 12012) was 0.03 µg/mL (≈ 0.0782 µM) and the MIC [3] was 0.03 µg/mL (≈ 0.0782 µM).
